Source: ChEMBL document CHEMBL1909046, “DrugMatrix in vitro pharmacology data”

Legend:
[1] = DRUGMATRIX: Atrial Natriuretic Factor (ANF) radioligand binding (ligand: [125I] ANF (rat)); type: cell membranes, Cavia porcellus, Dunkin-Hartley, Adrenal gland, Membrane; conditions: Not Active = under 50% inhibition at 10 µM
[2] = molecular target: Vascular endothelial growth factor receptor 1 (Homo sapiens, UniProt P17948); type: cell-based; conditions: huvec; further: in other assays of this panel Not Active means under 50% inhibition at 10 µM
[3] = molecular target: T1, Vasoactive intestinal polypeptide receptor 1 (Homo sapiens, UniProt P32241); type: cell membranes, Membrane; conditions: ht-29; further: in other assays of this panel Not Active means under 50% inhibition at 10 µM
T1 sequence (P32241 whole entry): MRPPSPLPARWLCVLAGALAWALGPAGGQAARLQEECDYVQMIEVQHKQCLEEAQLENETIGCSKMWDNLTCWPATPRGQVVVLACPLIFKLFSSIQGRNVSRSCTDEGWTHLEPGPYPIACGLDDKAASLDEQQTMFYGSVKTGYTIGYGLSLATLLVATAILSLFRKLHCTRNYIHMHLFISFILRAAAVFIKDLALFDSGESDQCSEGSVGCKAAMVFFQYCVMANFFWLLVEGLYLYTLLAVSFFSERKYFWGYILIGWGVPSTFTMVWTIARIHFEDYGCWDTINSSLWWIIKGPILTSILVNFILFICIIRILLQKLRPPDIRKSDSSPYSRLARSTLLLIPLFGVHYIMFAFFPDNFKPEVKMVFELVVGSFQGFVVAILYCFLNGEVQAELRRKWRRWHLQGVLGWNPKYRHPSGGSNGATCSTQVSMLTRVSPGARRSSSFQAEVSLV

[4] = DRUGMATRIX: GABAA, Muscimol, Central radioligand binding (ligand: [3H] Muscimol); type: cell membranes, Rattus norvegicus, Wistar, Brain, Membrane; conditions: Not Active = under 50% inhibition at 10 µM
Leukotriene C4 synthase = molecular target: T2, Leukotriene C4 synthase (Cavia porcellus, UniProt A6XA80); type: tissue-based, Lung;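 further: enzyme inhibition assay of leukotriene C4 synthase, using LTA4 as the substrate; in other assays of this panel Not Active means under 50% inhibition at 10 µM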
T2 sequence (A6XA80 whole entry): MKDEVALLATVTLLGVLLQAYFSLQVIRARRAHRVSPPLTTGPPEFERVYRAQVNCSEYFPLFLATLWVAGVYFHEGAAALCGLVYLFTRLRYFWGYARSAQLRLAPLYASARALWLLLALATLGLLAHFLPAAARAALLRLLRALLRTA

[5] = molecular target: T3, Amine oxidase [flavin-containing] A (Homo sapiens, UniProt P21397); experiment: DRUGMATRIX: Monoamine Oxidase MAO-A enzyme inhibition (substrate: Kynuramine); set-up: species or system BTI-TN-5B1-4; conditions: bti-tn-5b1-4; Not Active = under 50% inhibition at 10 µM
T3 sequence (P21397 whole entry): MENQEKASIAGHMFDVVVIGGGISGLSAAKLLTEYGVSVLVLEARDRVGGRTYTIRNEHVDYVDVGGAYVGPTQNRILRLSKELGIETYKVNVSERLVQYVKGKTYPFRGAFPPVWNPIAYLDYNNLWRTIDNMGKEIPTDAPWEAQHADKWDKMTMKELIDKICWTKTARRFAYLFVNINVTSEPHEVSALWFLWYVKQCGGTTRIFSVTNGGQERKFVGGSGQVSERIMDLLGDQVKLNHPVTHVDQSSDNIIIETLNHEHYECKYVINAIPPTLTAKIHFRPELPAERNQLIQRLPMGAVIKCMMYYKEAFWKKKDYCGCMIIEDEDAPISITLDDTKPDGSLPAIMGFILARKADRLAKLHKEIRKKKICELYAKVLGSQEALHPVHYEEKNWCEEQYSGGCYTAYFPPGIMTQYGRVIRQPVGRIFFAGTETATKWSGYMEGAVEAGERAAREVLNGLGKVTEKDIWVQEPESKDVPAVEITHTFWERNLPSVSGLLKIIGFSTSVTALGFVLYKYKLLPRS

[6] = DRUGMATRIX: Nicotinic Acetylcholine radioligand binding (ligand: [125I] Epibatidine); type: cell membranes, Membrane; conditions: imr-32; Not Active = under 50% inhibition at 10 µM
[7] = molecular target: Mitogen-activated protein kinase 1 (Homo sapiens, UniProt P28482); experiment: DRUGMATRIX: Protein Serine/Threonine Kinase, ERK2 enzyme inhibition (substrate: Myelin Basic Protein); set-up: species or system Escherichia coli; conditions: Not Active = under 50% inhibition at 10 µM
Cytochrome P450 2A6 = molecular target: T4, Cytochrome P450 2A6 (Homo sapiens, UniProt P11509); conditions: bti-tn-5b1-4; further: in other assays of this panel Not Active means under 50% inhibition at 10 µM
T4 sequence (P11509 whole entry): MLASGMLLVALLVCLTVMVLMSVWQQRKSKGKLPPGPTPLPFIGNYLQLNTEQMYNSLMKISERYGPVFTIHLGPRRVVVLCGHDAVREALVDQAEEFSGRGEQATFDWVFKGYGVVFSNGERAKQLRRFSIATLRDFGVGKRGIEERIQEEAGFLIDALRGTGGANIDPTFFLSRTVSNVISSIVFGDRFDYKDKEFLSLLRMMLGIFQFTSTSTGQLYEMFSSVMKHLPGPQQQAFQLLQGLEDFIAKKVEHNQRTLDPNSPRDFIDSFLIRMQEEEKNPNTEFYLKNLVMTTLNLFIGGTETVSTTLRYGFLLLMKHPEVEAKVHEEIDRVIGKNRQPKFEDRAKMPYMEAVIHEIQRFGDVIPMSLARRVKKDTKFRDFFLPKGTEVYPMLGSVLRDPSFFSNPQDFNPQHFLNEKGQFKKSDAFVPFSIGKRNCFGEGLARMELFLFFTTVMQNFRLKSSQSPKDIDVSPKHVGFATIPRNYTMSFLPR

Vascular endothelial growth factor receptor 1, sequence (P17948 whole entry): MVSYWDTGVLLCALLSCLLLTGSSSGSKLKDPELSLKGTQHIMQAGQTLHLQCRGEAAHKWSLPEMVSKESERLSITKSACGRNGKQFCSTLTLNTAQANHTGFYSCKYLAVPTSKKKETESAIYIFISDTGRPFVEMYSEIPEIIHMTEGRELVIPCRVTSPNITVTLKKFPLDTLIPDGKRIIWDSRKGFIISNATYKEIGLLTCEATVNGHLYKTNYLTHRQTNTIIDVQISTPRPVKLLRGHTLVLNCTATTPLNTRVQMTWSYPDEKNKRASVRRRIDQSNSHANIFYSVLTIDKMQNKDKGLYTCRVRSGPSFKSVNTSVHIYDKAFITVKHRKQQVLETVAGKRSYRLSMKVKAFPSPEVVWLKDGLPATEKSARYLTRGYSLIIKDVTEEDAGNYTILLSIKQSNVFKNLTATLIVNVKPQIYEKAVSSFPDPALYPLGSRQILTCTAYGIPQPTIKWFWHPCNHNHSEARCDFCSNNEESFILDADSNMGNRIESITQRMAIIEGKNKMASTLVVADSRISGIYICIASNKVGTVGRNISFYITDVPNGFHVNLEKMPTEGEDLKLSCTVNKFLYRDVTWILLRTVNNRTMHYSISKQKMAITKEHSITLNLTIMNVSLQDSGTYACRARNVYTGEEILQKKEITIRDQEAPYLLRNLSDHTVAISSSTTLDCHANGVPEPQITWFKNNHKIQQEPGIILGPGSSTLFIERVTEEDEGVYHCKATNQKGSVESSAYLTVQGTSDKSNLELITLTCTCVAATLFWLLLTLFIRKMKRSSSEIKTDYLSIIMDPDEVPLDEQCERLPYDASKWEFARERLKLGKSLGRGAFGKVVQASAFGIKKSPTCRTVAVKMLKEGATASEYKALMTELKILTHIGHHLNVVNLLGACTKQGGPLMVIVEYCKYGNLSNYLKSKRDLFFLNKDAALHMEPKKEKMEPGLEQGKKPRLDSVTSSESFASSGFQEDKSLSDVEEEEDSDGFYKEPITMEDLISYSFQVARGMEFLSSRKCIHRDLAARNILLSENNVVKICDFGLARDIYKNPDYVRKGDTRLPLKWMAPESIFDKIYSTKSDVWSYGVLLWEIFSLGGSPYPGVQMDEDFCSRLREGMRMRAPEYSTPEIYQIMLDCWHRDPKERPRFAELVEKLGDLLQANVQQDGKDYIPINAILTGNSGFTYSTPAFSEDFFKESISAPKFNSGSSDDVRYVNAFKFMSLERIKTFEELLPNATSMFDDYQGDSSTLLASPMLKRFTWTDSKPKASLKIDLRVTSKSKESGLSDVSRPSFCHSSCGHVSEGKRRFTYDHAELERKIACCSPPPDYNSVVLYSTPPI
Mitogen-activated protein kinase 1, sequence (P28482 whole entry): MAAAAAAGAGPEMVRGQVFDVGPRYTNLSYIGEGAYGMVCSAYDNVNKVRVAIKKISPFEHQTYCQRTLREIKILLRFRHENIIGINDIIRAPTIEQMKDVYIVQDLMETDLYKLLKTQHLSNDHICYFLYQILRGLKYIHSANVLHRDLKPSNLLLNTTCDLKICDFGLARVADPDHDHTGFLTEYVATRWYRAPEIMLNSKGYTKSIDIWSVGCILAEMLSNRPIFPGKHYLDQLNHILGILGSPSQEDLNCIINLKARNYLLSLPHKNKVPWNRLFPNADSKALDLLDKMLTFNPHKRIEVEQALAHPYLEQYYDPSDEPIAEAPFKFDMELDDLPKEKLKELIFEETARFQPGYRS

CCCOc1ccccc1-c1nc2nn[nH]c2c(=O)[nH]1 [ZAPRINAST]
Not Active: IC50 [1] | Ki [1] | IC50 [2] | IC50 [3] | IC50 [4] | Ki [4] | IC50 (Leukotriene C4 synthase) | IC50 [5] | IC50 [6] | Ki [6] | IC50 [7] | IC50 (Cytochrome P450 2A6) | Ki (Cytochrome P450 2A6)

SODIUM NITROPRUSSIDE
Not Active: IC50 [1] | Ki [1] | IC50 [2] | Ki [2] | IC50 [3] | Ki [3] | IC50 [4] | Ki [4] | IC50 (Leukotriene C4 synthase) | Ki (Leukotriene C4 synthase) | IC50 [5] | Ki [5] | IC50 [6] | Ki [6] | IC50 [7] | Ki [7] | IC50 (Cytochrome P450 2A6) | Ki (Cytochrome P450 2A6)
